Measurements as given in ChEMBL document CHEMBL6103667, “Novel Cyclic Peptides Inhibiting Tumor Necrosis Factor Receptor 1 Activity” (ACS Med Chem Lett, 2025).
Numbered stars: 1 amine (or outer) side, 2 acyl side, 3 side chain; on linkers, the order of the positions; unused ones are H or OH. Bridge positions count the residues as written; N and C are the ends. Square brackets hold non-standard residues; d marks the D form. Peptide text beside a SMILES is read from it. X1 = COc1cccc2c([C@H](C)[C@](C)(N[*:1])C(=O)[*:2])c[nH]c12; Morpholine(3S-CO,6,6-Me2) = CC1(C)CN[C@H](C(=O)O)CO1; Trp(7-Cl) = N[C@@H](Cc1c[nH]c2c(Cl)cccc12)C(=O)O; Phe(4-COOH) = N[C@@H](Cc1ccc(C(=O)O)cc1)C(=O)O; X2 = O=C([C@H]1CC[C@@H](N[*:1])C1)[*:2]; Pip(4-aza) = O=C(O)[C@@H]1CNCCN1; 4Pal = N[C@@H](Cc1ccncc1)C(=O)O; NMeE = CN[C@@H](CCC(=O)O)C(=O)O; X3 = CC[C@H](C(=O)[*:1])[*:2]; NEtAla = CCN[C@@H](C)C(=O)O; αMeS = C[C@](N)(CO)C(=O)O; Nle = CCCC[C@H](N)C(=O)O; Sar = CNCC(=O)O

How the values were obtained:
[1] = biological target: T1, Tumor necrosis factor receptor superfamily member 1B (Homo sapiens, UniProt P20333); assay: Binding affinity to C-terminal Avi-tagged human TNFR2 extracted from Sf21 baculovirus expression system assessed as dissociation constant incubated for 20 hrs in presence of ATP by SPR analysis
T1 sequence (P20333 whole entry): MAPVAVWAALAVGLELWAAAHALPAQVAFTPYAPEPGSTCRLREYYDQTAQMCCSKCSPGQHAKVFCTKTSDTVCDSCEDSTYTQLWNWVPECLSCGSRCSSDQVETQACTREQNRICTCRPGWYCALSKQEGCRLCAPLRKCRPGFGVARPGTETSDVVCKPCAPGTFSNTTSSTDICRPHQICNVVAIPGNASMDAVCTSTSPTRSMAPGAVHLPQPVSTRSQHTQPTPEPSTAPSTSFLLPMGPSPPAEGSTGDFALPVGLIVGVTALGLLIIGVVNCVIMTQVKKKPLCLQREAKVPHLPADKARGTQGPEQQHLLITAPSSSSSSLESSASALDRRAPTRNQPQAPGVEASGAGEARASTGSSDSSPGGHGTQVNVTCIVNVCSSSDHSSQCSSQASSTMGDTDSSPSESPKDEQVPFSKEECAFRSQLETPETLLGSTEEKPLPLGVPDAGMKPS

[2] = biological target: T2, Tumor necrosis factor receptor superfamily member 1A (Homo sapiens, UniProt P19438); assay: Displacement of biotinylated peptide from C-terminal 6His-tagged human soluble TNFR1 (1 to 211 residues) extracted from Sf21 baculovirus expression system incubated for 90 mins by LanthaScreen Eu based TR-FRET binding assay
T2 sequence (P19438 whole entry): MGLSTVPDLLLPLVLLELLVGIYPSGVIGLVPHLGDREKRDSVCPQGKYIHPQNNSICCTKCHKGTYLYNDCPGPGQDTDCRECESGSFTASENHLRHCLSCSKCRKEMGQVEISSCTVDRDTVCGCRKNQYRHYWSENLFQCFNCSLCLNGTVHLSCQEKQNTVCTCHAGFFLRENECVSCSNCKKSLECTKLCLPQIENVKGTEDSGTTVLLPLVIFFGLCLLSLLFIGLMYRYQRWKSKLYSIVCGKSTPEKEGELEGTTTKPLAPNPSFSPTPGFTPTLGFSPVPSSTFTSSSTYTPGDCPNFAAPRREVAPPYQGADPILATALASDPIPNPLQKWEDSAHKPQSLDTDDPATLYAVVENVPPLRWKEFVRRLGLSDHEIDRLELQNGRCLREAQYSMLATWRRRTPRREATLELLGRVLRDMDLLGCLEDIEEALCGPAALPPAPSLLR

[3] = Inhibition of TNFalpha-induced NF-kappaB signal transduction pathway in human THP-1 cells preincubated for 1 hrs followed by TNFalpha addition and measured after 16 to 18 hrs by luminescence based microplate reader; format: cell-based
[4] = biological target: T2, Tumor necrosis factor receptor superfamily member 1A; assay: Binding affinity to C-terminal Avi-tagged human TNFRl extracted from Sf21 baculovirus expression system assessed as dissociation constant incubated for 20 hrs in presence of ATP by SPR analysis

| Structure (SMILES) | Kd [1] [nM] | IC50 [2] [nM] | IC50 [3] [nM] | Kd [4] [nM] |
| --- | --- | --- | --- | --- |
| CCCC[C@@H]1NC(=O)[C@H]2CC[C@H](C2)NC(=O)[C@](C)([C@@H](C)c2c[nH]c3c(OC)cccc23)NC(=O)CN(C)C(=O)[C@H](Cc2ccc(O)cc2)NC(=O)[C@H](Cc2ccc(C(=O)O)cc2)NC(=O)[C@](C)(CO)NC(=O)[C@H](Cc2c[nH]c3c(Cl)cccc23)NC(=O)[C@H](Cc2ccncc2)NC(=O)[C@H](CC(=O)O)NC(=O)[C@H](CCC(=O)O)N(C)C(=O)[C@H](Cc2c[nH]c3ccccc23)NC(=O)[C@@H]2CNCCN2C(=O)[C@H](Cc2ccncc2)NC1=O (cyclo([4Pal][Trp(7-Cl)][αMeS][Phe(4-COOH)]Y[Sar][X1][X2][Nle][4Pal][Pip(4-aza)]W[NMeE]D)) | > 1000 | 0.2 | 1.2 | 0.1 |
| CCCC[C@@H]1NC(=O)[C@@H](CC)SC[C@@H](C(N)=O)NC(=O)[C@](C)([C@@H](C)c2c[nH]c3c(OC)cccc23)NC(=O)CN(C)C(=O)[C@H](Cc2ccc(O)cc2)NC(=O)[C@H](Cc2ccc(C(=O)O)cc2)NC(=O)[C@](C)(CO)NC(=O)[C@H](Cc2c[nH]c3c(Cl)cccc23)NC(=O)[C@H](Cc2ccncc2)NC(=O)[C@H](CC(N)=O)NC(=O)[C@H](CCC(=O)O)N(C)C(=O)[C@H](Cc2c[nH]c3ccccc23)NC(=O)[C@@H]2COC(C)(C)CN2C(=O)[C@H](Cc2ccncc2)NC1=O ([Nle][4Pal][Morpholine(3S-CO,6,6-Me2)]W[NMeE]N[4Pal][Trp(7-Cl)][αMeS][Phe(4-COOH)]Y[Sar][X1]C-NH2; linker N-14 via X3) | > 1000 | 0.55 | 2.2 | 0.2 |
| CCCC[C@@H]1NC(=O)CSC[C@@H](C(N)=O)NC(=O)[C@](C)([C@@H](C)c2c[nH]c3c(OC)cccc23)NC(=O)CN(C)C(=O)[C@H](Cc2ccc(O)cc2)NC(=O)[C@H](Cc2ccc(C(=O)O)cc2)NC(=O)[C@](C)(CO)NC(=O)[C@H](Cc2c[nH]c3c(Cl)cccc23)NC(=O)[C@H](Cc2ccncc2)NC(=O)[C@H](CC(N)=O)NC(=O)[C@H](C)N(CC)C(=O)[C@H](Cc2c[nH]c3ccccc23)NC(=O)[C@@H]2COC(C)(C)CN2C(=O)[C@H](Cc2ccncc2)NC1=O ({CH2CO}-[Nle][4Pal][Morpholine(3S-CO,6,6-Me2)]W[NEtAla]N[4Pal][Trp(7-Cl)][αMeS][Phe(4-COOH)]Y[Sar][X1]C-NH2; thioether N-14) | > 1000 | 0.6 | 0.8 | 0.14 |
